Assay results published in PubChem BioAssay AID489006 (Sanford-Burnham Center for Chemical Genomics, 2010).
The source made the active and inactive calls. The rule behind the calls is not given here.

tested on: Jurkat NF-kB reporter, luminescence; test: Jurkat NF-kB signaling inhibitors – cell-based, luminescence, selectivity assay for B-cell receptor NF-kB inhibitor project, dose response (AID 489006)

**Q.** How did the IC50 turn out when COC(=O)[C@@H]1Cc2c([nH]c3ccccc23)C(C)(C)N1C(=O)CCl was run?
**A.** 1.73 µM

**Q.** For Cn1cnc([N+](=O)[O-])c1Sc1ccc([N+](=O)[O-])cc1, which IC50 is on record?
**A.** 8.41 µM

**Q.** Which IC50 does the source give for COc1ccc(-c2nsc(SCC(=O)Nc3cc(C)on3)n2)cc1 here?
**A.** > 80 µM (inactive)

**Q.** With CCN(C(=O)CN1C(=O)NC(c2ccccc2)(c2ccc(C)c(C)c2)C1=O)C1CCCCC1 (stereo not drawn) as the molecule, how does the IC50 read?
**A.** 38.9 µM (inactive)

**Q.** Which IC50 does the source give for CCNc1nc(C)c2cc(Br)c(=O)n(CC)c2n1 here?
**A.** 7.89 µM

**Q.** For N=c1c(C(=O)NC2CCCC2)cc2c(=O)n3ccccc3nc2n1CCN1CCOCC1, which IC50 is on record?
**A.** > 80 µM (inactive)

**Q.** CC(C)(C)c1ccc(-c2nnc(SCC(=O)NC3CC3)o2)cc1 was tested. Which IC50 did it give?
**A.** > 80 µM (inactive)

**Q.** How did the IC50 turn out when CCn1c(=O)cc(SCC(=O)N2CCCCC2)c2ccccc21 was run?
**A.** > 80 µM (inactive)

**Q.** How did the IC50 turn out when CCOC(=O)C1CCN(c2ncnc3c2cnn3-c2ccc(Cl)cc2)CC1 was run?
**A.** 0.39 µM

**Q.** O=C(CCCN1C(=O)S/C(=C\c2ccccc2)C1=O)NNC(=O)c1ccccc1O was tested. Which IC50 did it give?
**A.** 1.06 µM

**Q.** For CCOc1ccc(/C=C2\SC(=S)N(CCCC(=O)NCCCN3CCOCC3)C2=O)cc1, which IC50 is on record?
**A.** 0.52 µM

**Q.** With COc1ccc(-c2noc(N3CCC(C(=O)Nc4ccc(OC)c(OC)c4)CC3)n2)cc1 as the molecule, how does the IC50 read?
**A.** > 80 µM (inactive)

**Q.** For O=C(Nc1cccc(S(=O)(=O)Nc2ccc(Cl)cc2)c1)c1ccc(Cl)nc1, which IC50 is on record?
**A.** 25.7 µM (inactive)

**Q.** With CCC(=O)N(C1=C(NC)C(=O)c2ccccc2C1=O)C(C)C as the molecule, how does the IC50 read?
**A.** 45.8 µM (inactive)

**Q.** How did the IC50 turn out when CCOC(=O)N1CCN(CC(=O)Nc2ccc([N+](=O)[O-])cc2C(=O)Nc2ccccc2F)CC1 was run?
**A.** 33.1 µM (inactive)

**Q.** CN1C(=O)CC(c2ccco2)Sc2ccccc21 (stereo not drawn) was tested. Which IC50 did it give?
**A.** > 80 µM (inactive)

**Q.** Which IC50 does the source give for CN1C(=O)c2cccc3c(S(=O)(=O)Nc4ccccc4F)ccc1c23 here?
**A.** 35.8 µM (inactive)

**Q.** Which IC50 does the source give for Cc1nc2cc(-c3ccc(Cl)cc3)nn2c(C)c1CCC(=O)NCc1ccco1 here?
**A.** 0.34 µM

**Q.** O=C(Nc1ccccc1C(=O)Nc1nnc(C(F)(F)F)s1)c1ccccc1 was tested. Which IC50 did it give?
**A.** > 80 µM (inactive)

**Q.** With Cc1c(CCC(=O)N2CCC(C(=O)O)(c3ccccc3)CC2)c(=O)oc2cc3oc4c(c3cc12)CCCC4 as the molecule, how does the IC50 read?
**A.** 4.93 µM

**Q.** Cc1cc(OCC(=O)Nc2ccc(CCO)cc2)c2c(C)c(C)c(=O)oc2c1 was tested. Which IC50 did it give?
**A.** > 80 µM (inactive)

**Q.** For CC(C)[C@H](N)c1nnc(SCC(=O)c2ccc(Cl)cc2)o1, which IC50 is on record?
**A.** > 80 µM (inactive)

**Q.** How did the IC50 turn out when CC(C)C(=O)Nc1ccc(NC(=O)c2ccc3c(c2)OCO3)cc1 was run?
**A.** > 80 µM (inactive)

**Q.** How did the IC50 turn out when Cc1ccc(-c2nn3c(C)nnc3c3ccccc23)cc1S(=O)(=O)N1CCN(CCO)CC1 was run?
**A.** 43.4 µM (inactive)

**Q.** How did the IC50 turn out when CC(C)c1ccc(/C=C2\SC(=S)N(CCC(=O)N3CCCCC3CCO)C2=O)cc1 (stereo not drawn) was run?
**A.** 0.33 µM

**Q.** How did the IC50 turn out when CC(C)(C)c1ccc(-c2cc(N)n[nH]2)cc1 was run?
**A.** 6.02 µM

**Q.** CN1CCN(C(=O)c2ccccc2N(Cc2ccccc2)S(=O)(=O)c2ccccc2)CC1 was tested. Which IC50 did it give?
**A.** > 80 µM (inactive)

**Q.** For CCN(CC)S(=O)(=O)c1ccc(N2CCOCC2)c(NC(=O)c2[nH]c(C)c(C(C)=O)c2C)c1, which IC50 is on record?
**A.** 47 µM (inactive)

**Q.** For Cc1[nH]c2ccccc2c1/C=N/Nc1nc(Nc2ccc(F)cc2)nc(N2CCOCC2)n1, which IC50 is on record?
**A.** 20.9 µM (inactive)

**Q.** CCN(CC(=O)Nc1c(F)cccc1F)C(=O)c1cc(S(=O)(=O)N(C)C)ccc1N1CCCC1 was tested. Which IC50 did it give?
**A.** > 80 µM (inactive)

**Q.** Which IC50 does the source give for CC1=CC(C)(C)Nc2ccc(OC(=O)CN3C(=O)CCC3=O)cc21 here?
**A.** 1.54 µM

**Q.** Which IC50 does the source give for Cc1nnc2c3ccccc3c(-c3ccccc3)nn12 here?
**A.** > 80 µM (inactive)

**Q.** Cc1[nH]c2ccccc2c1/C=N/Nc1nc(Nc2ccccc2)nc(N2CCOCC2)n1 was tested. Which IC50 did it give?
**A.** 35.2 µM (inactive)

**Q.** With COc1cc(-c2nc3n(n2)C(c2ccc(F)cc2)C2=C(CCCC2=O)N3)cc(OC)c1OC (stereo not drawn) as the molecule, how does the IC50 read?
**A.** > 80 µM (inactive)

**Q.** CC(C)Oc1ccc(C(=O)Nc2ccc(N(C)C)cc2)cc1 was tested. Which IC50 did it give?
**A.** > 80 µM (inactive)

**Q.** With CC(=O)C1=NN(c2ccccc2)C(c2cccs2)N1c1ccc(N(C)C)cc1 (stereo not drawn) as the molecule, how does the IC50 read?
**A.** > 80 µM (inactive)

**Q.** Which IC50 does the source give for CCCCCC/C=C/c1ccc(OC)c([C@H]2[C@H]3C=CC[C@@H](C)[C@@H]3C(=O)N2Cc2ccccc2)c1 here?
**A.** > 80 µM (inactive)

**Q.** For Cc1ccc(O)c(NC(=O)COc2cc(C)ccc2C)c1, which IC50 is on record?
**A.** > 80 µM (inactive)

**Q.** With c1ccc(CCNc2ncnc3ccccc23)cc1 as the molecule, how does the IC50 read?
**A.** 64.2 µM (inactive)

**Q.** Which IC50 does the source give for CCc1ccc2nc(Nc3nc(COC)cc(=O)[nH]3)nc(C)c2c1 here?
**A.** > 80 µM (inactive)

**Q.** CCOc1cc2nc(-c3ccc(OC)c(OC)c3)nc(N3CCOCC3)c2cc1OC was tested. Which IC50 did it give?
**A.** 45.8 µM (inactive)

**Q.** How did the IC50 turn out when CCOC(=O)c1sc(NC(=O)c2cc(-c3ccccc3C)nc3ccccc23)c(C#N)c1C was run?
**A.** > 80 µM (inactive)

**Q.** Which IC50 does the source give for COc1ccc(OC)c(NC(=O)c2[nH]c(C)c(C(C)=O)c2C)c1 here?
**A.** > 80 µM (inactive)

**Q.** For C=C(C)[C@@H]1CCC2(C(=O)O)CC[C@]3(C)[C@H](CC[C@@H]4[C@@]5(C)CCC(=O)C(C)(C)[C@@H]5CC[C@]43C)[C@@H]12 (stereo partly drawn), which IC50 is on record?
**A.** > 80 µM (inactive)

**Q.** Which IC50 does the source give for O=c1cccc2c1c1cc[nH]c3ccc(=O)n2c31 here?
**A.** 2.3 µM

**Q.** How did the IC50 turn out when CCOc1ccc(S(=O)(=O)NCc2ccncc2)cc1NC(=O)c1ccccc1 was run?
**A.** > 80 µM (inactive)

**Q.** How did the IC50 turn out when Cc1ccc(C(=O)OCC(=O)N(CC(C)C)c2c(N)n(Cc3ccccc3)c(=O)[nH]c2=O)o1 was run?
**A.** > 80 µM (inactive)

**Q.** O=C(c1cc2nc(-c3ccccc3)cc(-c3ccccc3)n2n1)N1CCN(C(=O)c2ccco2)CC1 was tested. Which IC50 did it give?
**A.** 31 µM (inactive)

**Q.** With Cc1csc(NC(=O)CCc2c(C)nc3cc(-c4ccc(Cl)cc4)nn3c2C)n1 as the molecule, how does the IC50 read?
**A.** 0.36 µM

**Q.** With C[C@H]1CCC/C=C/[C@@H]2C[C@H](O)C[C@H]2[C@H](O)/C=C/C(=O)O1 as the molecule, how does the IC50 read?
**A.** > 80 µM (inactive)

**Q.** O=C(CCl)N(c1ccc(Cl)cc1)c1c[nH]c2ccccc12 was tested. Which IC50 did it give?
**A.** 0.85 µM

**Q.** With COCCCn1c(=O)/c(=C\c2cccc(OC)c2OC)s/c1=C(/C#N)C(=O)Nc1ccc(C(=O)O)cc1 as the molecule, how does the IC50 read?
**A.** > 80 µM (inactive)

**Q.** How did the IC50 turn out when COc1ccc(-c2nn(C)c(=O)c3ccccc23)cc1NS(C)(=O)=O was run?
**A.** > 80 µM (inactive)

**Q.** Which IC50 does the source give for O=S(=O)(NCc1ccncc1)c1ccc(Br)s1 here?
**A.** > 80 µM (inactive)

**Q.** Which IC50 does the source give for Cn1c(=NC(=O)CCl)sc2ccccc21 here?
**A.** 1.18 µM

**Q.** For Cc1ccc(-c2nn3c(C)nnc3c3ccccc23)cc1S(=O)(=O)NCc1ccco1, which IC50 is on record?
**A.** 46.7 µM (inactive)

**Q.** CCc1ccc2[nH]c3nc(N/N=C/c4cccc(O)c4)nnc3c2c1 was tested. Which IC50 did it give?
**A.** > 80 µM (inactive)

**Q.** COc1ccc(OC)c(S(=O)(=O)Nc2ccc(-c3ccc4nnc(C)n4n3)cc2)c1 was tested. Which IC50 did it give?
**A.** 11.5 µM

**Q.** For COc1ccc(/C=C\C(=O)O[C@@H]2C(O)C(O[C@@H]3OC(C)[C@H](O[C@@H]4OCC(O[C@H]5O[C@H](CO)[C@@H](O)C(O)C5O)C(O)C4O)C(O)C3O)[C@H](OC(=O)[C@]34CCC(C)(C)C[C@@H]3C3=CCC5[C@@]6(C)CC(O)C(O[C@@H]7OC(CO)C(O)[C@H](O)[C@H]7O)[C@@](C)(C(=O)O)C6CC[C@@]5(C)[C@]3(CO)CC4)O[C@H]2C)cc1 (stereo partly drawn), which IC50 is on record?
**A.** 2.88 µM

**Q.** How did the IC50 turn out when Oc1[nH]c2ccccc2c1N=Nc1nc(Nc2ccccc2)nc(N2CCOCC2)n1 was run?
**A.** 9.4 µM

**Q.** With O=C1CCC2S/C(=C/Nc3ccc(C(F)(F)F)cc3)C(=O)N12 (stereo not drawn) as the molecule, how does the IC50 read?
**A.** 0.18 µM

**Q.** Which IC50 does the source give for O=C(Nc1cccc(Oc2ccc3c(c2)C(=O)NC3=O)c1)c1cccs1 here?
**A.** > 80 µM (inactive)

**Q.** For O=C(Cc1cccc2ccccc12)Nc1ccc(-c2cc3ccccc3oc2=O)cc1, which IC50 is on record?
**A.** 14.8 µM
